Experimental data: ChEMBL document CHEMBL1156482, “Molecular mechanism of action of monocyclam versus bicyclam non-peptide antagonists in the CXCR4 chemokine receptor” (J Biol Chem, 2007)
Calls of active or inactive are those of the source. No cut-off for these calls is given here.

How the values were obtained:
[1] = test system: Human immunodeficiency virus 1; assay: Antiviral activity against HIV1 NL43 infected in U87.CD4 cells expressing human CXCR4 D171N/D262N mutant; type: functional, organism-based
[2] = test system: Human immunodeficiency virus 1; assay: Antiviral activity against HIV1 NDK infected in U87.CD4 cells expressing human CXCR4 D171ND262N mutant; type: functional, organism-based; details: Human immunodeficiency virus 1, NDK
[3] = test system: Human immunodeficiency virus 1; assay: Antiviral activity against HIV1 clinical isolate 10 infected in U87.CD4 cells expressing human CXCR4 D171ND262N mutant; type: functional, organism-based; details: Human immunodeficiency virus 1, U87.CD4
[4] = test system: C-X-C chemokine receptor type 4 (Homo sapiens), P61073 [H113A]; assay: Displacement of [125I]12G5 antibody from transmembrane domain 3 of human CXCR4 H113A mutant expressed in COS7 cells; type: cell-based; details: COS-7
[5] = test system: C-X-C chemokine receptor type 4 (Homo sapiens), P61073 [D171N]; assay: Displacement of [125I]12G5 antibody from transmembrane domain 4 of human CXCR4 D171N mutant expressed in COS7 cells; type: cell-based; details: COS-7
[6] = test system: C-X-C chemokine receptor type 4 (Homo sapiens), P61073 [H281A]; assay: Antagonist activity at human CXCR4 H281A mutant expressed in U87.CD4 cells assessed as inhibition of CXCL12-induced calcium mobilization; type: functional, cell-based
[7] = test system: Human immunodeficiency virus 1; assay: Antiviral activity against HIV1 NL43 infected in U87.CD4 cells expressing human wild type CXCR4; type: functional, organism-based; details: Human immunodeficiency virus 1, NL43, U87.CD4
[8] = test system: Human immunodeficiency virus 1; assay: Antiviral activity against HIV1 NDK infected in U87.CD4 cells expressing human wild type CXCR4; type: functional, organism-based; details: Human immunodeficiency virus 1, NDK
[9] = test system: Human immunodeficiency virus 1; assay: Antiviral activity against HIV1 clinical isolate 10 infected in U87.CD4 cells expressing human wild type CXCR4; type: functional, organism-based; details: Human immunodeficiency virus 1, U87.CD4
[10] = test system: Human immunodeficiency virus 1; assay: Antiviral activity against HIV1 NL43 infected in U87.CD4 cells expressing human CXCR4 D171N mutant; type: functional, organism-based; details: Human immunodeficiency virus 1, NL43, U87.CD4
[11] = test system: Human immunodeficiency virus 1; assay: Antiviral activity against HIV1 NDK infected in U87.CD4 cells expressing human CXCR4 D171N mutant; type: functional, organism-based; details: Human immunodeficiency virus 1, NDK
[12] = test system: Human immunodeficiency virus 1; assay: Antiviral activity against HIV1 clinical isolate 10 infected in U87.CD4 cells expressing human CXCR4 D171N mutant; type: functional, organism-based; details: Human immunodeficiency virus 1, U87.CD4
[13] = test system: Human immunodeficiency virus 1; assay: Antiviral activity against HIV1 NDK infected in U87.CD4 cells expressing human CXCR4 D262N mutant; type: functional, organism-based; details: Human immunodeficiency virus 1, NDK
[14] = test system: Human immunodeficiency virus 1; assay: Antiviral activity against HIV1 NL43 infected in U87.CD4 cells expressing human CXCR4 D262N mutant; type: functional, organism-based; details: Human immunodeficiency virus 1, NL43, U87.CD4
[15] = test system: Human immunodeficiency virus 1; assay: Antiviral activity against HIV1 clinical isolate 10 infected in U87.CD4 cells expressing human CXCR4 D262N mutant; type: functional, organism-based; details: Human immunodeficiency virus 1, U87.CD4
[16] = test system: Human immunodeficiency virus 1; assay: Antiviral activity against HIV1 NL43 infected in U87.CD4 cells expressing human CXCR4 H281A mutant; type: functional, organism-based; details: Human immunodeficiency virus 1, NL43, U87.CD4
[17] = test system: Human immunodeficiency virus 1; assay: Antiviral activity against HIV1 NDK infected in U87.CD4 cells expressing human CXCR4 H281A mutant; type: functional, organism-based; details: Human immunodeficiency virus 1, NDK
[18] = test system: Human immunodeficiency virus 1; assay: Antiviral activity against HIV1 clinical isolate 10 infected in U87.CD4 cells expressing human CXCR4 H281A mutant; type: functional, organism-based; details: Human immunodeficiency virus 1, U87.CD4
[19] = test system: Human immunodeficiency virus 1; assay: Antiviral activity against HIV1 NL43 infected in U87.CD4 cells expressing human CXCR4 E288A mutant; type: functional, organism-based
[20] = test system: Human immunodeficiency virus 1; assay: Antiviral activity against HIV1 NDK infected in U87.CD4 cells expressing human CXCR4 E288A mutant; type: functional, organism-based; details: Human immunodeficiency virus 1, NDK
[21] = test system: Human immunodeficiency virus 1; assay: Antiviral activity against HIV1 clinical isolate 10 infected U87.CD4 cells expressing human CXCR4 E288A mutant; type: functional, organism-based; details: Human immunodeficiency virus 1, U87.CD4
[22] = test system: C-X-C chemokine receptor type 4 (Homo sapiens), P61073 [I259A]; details: COS-7
Chain of C-X-C chemokine receptor type 4 (Homo sapiens), P61073 [I259A] (P61073 whole entry I259A): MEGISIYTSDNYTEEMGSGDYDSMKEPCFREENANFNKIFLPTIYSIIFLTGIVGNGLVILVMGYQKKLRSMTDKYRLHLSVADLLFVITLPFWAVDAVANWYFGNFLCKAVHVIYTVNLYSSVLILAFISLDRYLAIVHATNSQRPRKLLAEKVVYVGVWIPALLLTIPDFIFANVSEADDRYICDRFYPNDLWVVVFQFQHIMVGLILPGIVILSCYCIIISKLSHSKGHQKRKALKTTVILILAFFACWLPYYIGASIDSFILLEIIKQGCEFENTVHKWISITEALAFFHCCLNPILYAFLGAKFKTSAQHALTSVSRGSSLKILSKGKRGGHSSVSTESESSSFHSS

Chain of C-X-C chemokine receptor type 4 (Homo sapiens), P61073 [D171N] (P61073 whole entry D171N, the tested form may be a part): as the sequence (P61073 whole entry I259A) above, with D171N, A259I counted along it
Chain of C-X-C chemokine receptor type 4 (Homo sapiens), P61073 [H113A] (P61073 whole entry H113A, the tested form may be a part): as the sequence (P61073 whole entry I259A) above, with H113A, A259I counted along it
Chain of C-X-C chemokine receptor type 4 (Homo sapiens), P61073 [H281A] (P61073 whole entry H281A): as the sequence (P61073 whole entry I259A) above, with A259I, H281A counted along it

c1cc(CN2CCCNCCNCCCNCC2)ccc1CN1CCCNCCNCCCNCC1 [PLERIXAFOR]
Activity [1]: inactive | IC50 [2]: > 3 µM | IC50 [3]: 2.69 µM | logKi [4]: -5.71 | logKi [5]: -4.87 | Activity [6]: Active | IC50 [7]: 0.014 µM | IC50 [8]: 0.0076 µM | IC50 [9]: 0.003 µM | IC50 [10]: 0.046 µM | IC50 [11]: 0.017 µM | IC50 [12]: 0.019 µM | IC50 [13]: > 3 µM | IC50 [14]: > 0.6 µM | IC50 [15]: 2.54 µM | IC50 [16]: < 0.0019 µM | IC50 [17]: < 0.0019 µM | IC50 [18]: 0.0024 µM | Activity [19]: inactive | IC50 [20]: > 6 µM | IC50 [21]: > 0.121 µM | logKi [22]: -5.81
